# Measured values taken from US20250339569A1, “CARBONIC ANHYDRASE IX LIGANDS” (priority 2021, published 2025).
# Starred links: 1 amine or outer side, 2 acyl side, 3 side chain; linkers in the order of their positions; H or OH if unused. Positions of bridges follow the written chain, without caps; N, C: chain ends. Non-standard residues stand in square brackets, D forms with d. Residues, ends and D or L forms follow the SMILES beside them. *: point of attachment. NH(1-deoxy-D-glucityl) = OC[C@@H](O)[C@@H](O)[C@H](O)[C@@H](O)CN*; DOTA = O=C(O)CN1CCN(CC(=O)O)CCN(CC(=O)*)CCN(CC(=O)O)CC1; Phe(4-tBu) = CC(C)(C)c1ccc(C[C@H](N)C(=O)O)cc1; Pyridine(2,6-diCH2) = c1cc(C[*:1])nc(C[*:2])c1; Pyridine(3,5-bisCH2) = c1ncc(C[*:2])cc1C[*:1]; Trp(7-aza) = N[C@@H](Cc1c[nH]c2ncccc12)C(=O)O; Bip = N[C@@H](Cc1ccc(-c2ccccc2)cc1)C(=O)O; Dip = N[C@H](C(=O)O)C(c1ccccc1)c1ccccc1; Phe(4-NH2) = Nc1ccc(C[C@H](N)C(=O)O)cc1; mXylylene = c1cc(C[*:1])cc(C[*:2])c1; X2 = O=C(CN1CCC(N[*:1])CC1)[*:2]; Bz = O=C(c1ccccc1)*; Bn = c1ccc(C*)cc1
# Target: T1, CAIX-expressing human HT-29 colorectal cancer cells (Homo sapiens, UniProt Q16790)
# T1 construct: CAIX-expressing human HT-29 colorectal cancer cells; host or cells: HT-29 human colorectal cancer cells
# Experiment: FACS binding assay (IC50 determination, competition with tracer 3BP-2776 or 3BP-4149)
# Conditions: not given
# Method in brief: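 HT-29 cells in FACS buffer (PBS, 1% FCS) at 500.000 cells/ml were exposed to compounds competing with a labelled tracer, with biotinylated compounds detected by 1 μg/mL APC-streptavidin for 30 min on ice. APC/Cy5 median fluorescence was read by flow cytometry and IC50 derived by 4PL fit.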
row,Structure (SMILES),IC50
1,CC(C)C[C@@H]1NC(=O)[C@H](Cc2c[nH]c3ccccc23)NC(=O)[C@H](Cc2ccc(OCc3ccccc3)cc2)NC(=O)[C@H]2CCCN2C(=O)[C@H](CCC(=O)O)NC(=O)[C@@H](NC(=O)[C@H](Cc2ccc(O)cc2)NC(=O)[C@@H](NC(=O)CN2CCC(NC(=O)CN3CCN(CC(=O)O)CCN(CC(=O)O)CCN(CC(=O)O)CC3)CC2)C(C)C)CSCc2cccc(c2)CSC[C@@H](C(N)=O)NC(=O)[C@H](CO)NC(=O)[C@H](Cc2c[nH]c3ccccc23)NC(=O)[C@H]([C@@H](C)O)NC1=O [3BP-4127] ({DOTA}-[X2]VYCE[dP]Y(Bn)WLTWSC-NH2; linker 4-13 via mXylylene),< 10 nM
2,CC(C)C[C@@H]1NC(=O)[C@H](Cc2ccc(OCc3ccccc3)cc2)NC(=O)[C@H](CC(=O)O)NC(=O)[C@H]2CCCN2C(=O)[C@H](CCC(=O)O)NC(=O)[C@@H](NC(=O)[C@H](Cc2ccc(O)cc2)NC(=O)[C@@H](NC(=O)CN2CCC(NC(=O)CN3CCN(CC(=O)O)CCN(CC(=O)O)CCN(CC(=O)O)CC3)CC2)C(C)C)CSCc2cccc(c2)CSC[C@@H](C(N)=O)NC(=O)[C@H](CO)NC(=O)[C@H](Cc2c[nH]c3ccccc23)NC(=O)[C@H]([C@@H](C)O)NC1=O [3BP-4137] ({DOTA}-[X2]VYCE[dP]DY(Bn)LTWSC-NH2; linker 4-13 via mXylylene),10 to 79.4 nM
3,CC(C)C[C@@H]1NC(=O)[C@H](Cc2ccc(NC(=O)c3ccccc3)cc2)NC(=O)[C@H](CC(=O)O)NC(=O)[C@H]2CCCN2C(=O)[C@H](CCC(=O)O)NC(=O)[C@@H](NC(=O)[C@H](Cc2ccc(O)cc2)NC(=O)[C@@H](NC(=O)CN2CCC(NC(=O)CN3CCN(CC(=O)O)CCN(CC(=O)O)CCN(CC(=O)O)CC3)CC2)C(C)C)CSCc2cccc(c2)CSC[C@@H](C(N)=O)NC(=O)[C@H](CO)NC(=O)[C@H](Cc2c[nH]c3ccccc23)NC(=O)[C@H]([C@@H](C)O)NC1=O [3BP-4171] ({DOTA}-[X2]VYCE[dP]D[Phe(4-NH2)](Bz)LTWSC-NH2; linker 4-13 via mXylylene),100 to 794 nM

# Same assay, conditions: FACS binding assay, HT-29 cells, competition with tracer 3BP-2776 (10 nM, biotin-labeled), 4° C., 1 hour; read-out: pIC50 category (activity) (converted)
row,Structure (SMILES),IC50
1,CC(C)C[C@@H]1NC(=O)[C@H](Cc2c[nH]c3ccccc23)NC(=O)[C@H](CC(=O)O)NC(=O)[C@H]2CCCN2C(=O)[C@H](CCC(=O)NC[C@H](O)[C@@H](O)[C@H](O)[C@H](O)CO)NC(=O)[C@@H](NC(=O)[C@H](Cc2ccc(O)cc2)NC(=O)[C@@H](NC(=O)CN2CCC(NC(=O)CN3CCN(CC(=O)O)CCN(CC(=O)O)CCN(CC(=O)O)CC3)CC2)C(C)C)CSCc2cccc(c2)CSC[C@@H](C(N)=O)NC(=O)[C@H](CO)NC(=O)[C@H](Cc2c[nH]c3ccccc23)NC(=O)[C@H]([C@@H](C)O)NC1=O [3BP-4113] ({DOTA}-[X2]VYCE(NH(1-deoxy-D-glucityl))[dP]DWLTWSC-NH2; linker 4-13 via mXylylene),< 10 nM
2,CC(C)C[C@@H]1NC(=O)[C@H](Cc2c[nH]c3ccccc23)NC(=O)[C@H](CC(=O)O)NC(=O)[C@H]2CCCCNC(=O)CC[C@H](NC1=O)C(=O)N[C@@H](Cc1c[nH]c3ccccc13)C(=O)N[C@@H](CO)C(=O)N[C@H](C(N)=O)CSCc1cccc(c1)CSC[C@H](NC(=O)[C@H](Cc1ccc(O)cc1)NC(=O)[C@@H](NC(=O)CN1CCC(NC(=O)CN3CCN(CC(=O)O)CCN(CC(=O)O)CCN(CC(=O)O)CC3)CC1)C(C)C)C(=O)N[C@@H](CCC(=O)O)C(=O)N2 [3BP-4114] ({DOTA}-[X2]VYCE[dK]DWLEWSC-NH2; linker 4-13 via mXylylene; lactam 6-10),10 to 79.4 nM
3,CC(C)C[C@@H]1NC(=O)[C@H](Cc2c[nH]c3ccccc23)NC(=O)[C@H](CO)NC(=O)[C@H]2CCCCNC(=O)CC[C@H](NC1=O)C(=O)N[C@@H](Cc1c[nH]c3ccccc13)C(=O)N[C@@H](CO)C(=O)N[C@H](C(N)=O)CSCc1cccc(c1)CSC[C@H](NC(=O)[C@H](Cc1ccc(O)cc1)NC(=O)[C@@H](NC(=O)CN1CCC(NC(=O)CN3CCN(CC(=O)O)CCN(CC(=O)O)CCN(CC(=O)O)CC3)CC1)C(C)C)C(=O)N[C@@H](CCC(=O)O)C(=O)N2 [3BP-4115] ({DOTA}-[X2]VYCE[dK]SWLEWSC-NH2; linker 4-13 via mXylylene; lactam 6-10),10 to 79.4 nM
4,"CC(C)C[C@@H]1NC(=O)[C@H](Cc2c[nH]c3ccccc23)NC(=O)[C@H](CCC(=O)NC[C@H](O)[C@@H](O)[C@H](O)[C@H](O)CO)NC(=O)[C@H]2CCCN2C(=O)[C@H](CCC(=O)O)NC(=O)[C@@H](NC(=O)[C@H](Cc2ccc(O)cc2)NC(=O)[C@@H](NC(=O)CN2CCC(NC(=O)CN3CCN(CC(=O)O)CCN(CC(=O)O)CCN(CC(=O)O)CC3)CC2)C(C)C)CSCc2cccc(c2)CSC[C@@H](C(N)=O)NC(=O)[C@H](CO)NC(=O)[C@H](Cc2c[nH]c3ccccc23)NC(=O)[C@H]([C@@H](C)O)NC1=O [3BP-4120, DOTA-APAc-Val-Tyr-[Cys(3MeBn)-Glu-pro-Glu(AGLU)-Trp-Leu-Thr-Trp-Ser-Cys]-NH2] ({DOTA}-[X2]VYCE[dP]E(NH(1-deoxy-D-glucityl))WLTWSC-NH2; linker 4-13 via mXylylene)",10 to 79.4 nM
5,CC(C)C[C@@H]1NC(=O)[C@H](CSCc2ccccc2)NC(=O)[C@H](CC(=O)O)NC(=O)[C@H]2CCCN2C(=O)[C@H](CCC(=O)O)NC(=O)[C@@H](NC(=O)[C@H](Cc2ccc(O)cc2)NC(=O)[C@@H](NC(=O)CN2CCC(NC(=O)CN3CCN(CC(=O)O)CCN(CC(=O)O)CCN(CC(=O)O)CC3)CC2)C(C)C)CSCc2cccc(c2)CSC[C@@H](C(N)=O)NC(=O)[C@H](CO)NC(=O)[C@H](Cc2c[nH]c3ccccc23)NC(=O)[C@H]([C@@H](C)O)NC1=O [3BP-4130] ({DOTA}-[X2]VYCE[dP]DC(Bn)LTWSC-NH2; linker 4-13 via mXylylene),< 10 nM
6,CC(C)C[C@@H]1NC(=O)[C@H](Cc2ccc(-c3ccccc3)cc2)NC(=O)[C@H](CC(=O)O)NC(=O)[C@H]2CCCN2C(=O)[C@H](CCC(=O)O)NC(=O)[C@@H](NC(=O)[C@H](Cc2ccc(O)cc2)NC(=O)[C@@H](NC(=O)CN2CCC(NC(=O)CN3CCN(CC(=O)O)CCN(CC(=O)O)CCN(CC(=O)O)CC3)CC2)C(C)C)CSCc2cccc(c2)CSC[C@@H](C(N)=O)NC(=O)[C@H](CO)NC(=O)[C@H](Cc2c[nH]c3ccccc23)NC(=O)[C@H]([C@@H](C)O)NC1=O [3BP-4131] ({DOTA}-[X2]VYCE[dP]D[Bip]LTWSC-NH2; linker 4-13 via mXylylene),< 10 nM

# Now from value to compound:
row,IC50,Structure (SMILES)
1,< 10 nM,CC(C)C[C@@H]1NC(=O)[C@H](C(c2ccccc2)c2ccccc2)NC(=O)[C@H](CC(=O)O)NC(=O)[C@H]2CCCN2C(=O)[C@H](CCC(=O)O)NC(=O)[C@@H](NC(=O)[C@H](Cc2ccc(O)cc2)NC(=O)[C@@H](NC(=O)CN2CCC(NC(=O)CN3CCN(CC(=O)O)CCN(CC(=O)O)CCN(CC(=O)O)CC3)CC2)C(C)C)CSCc2cccc(c2)CSC[C@@H](C(N)=O)NC(=O)[C@H](CO)NC(=O)[C@H](Cc2c[nH]c3ccccc23)NC(=O)[C@H]([C@@H](C)O)NC1=O [3BP-4132] ({DOTA}-[X2]VYCE[dP]D[Dip]LTWSC-NH2; linker 4-13 via mXylylene)
2,< 10 nM,CC(C)C[C@@H]1NC(=O)[C@H](Cc2ccc(O)cc2)NC(=O)[C@H](CC(=O)O)NC(=O)[C@H]2CCCN2C(=O)[C@H](CCC(=O)O)NC(=O)[C@@H](NC(=O)[C@H](Cc2ccc(O)cc2)NC(=O)[C@@H](NC(=O)CN2CCC(NC(=O)CN3CCN(CC(=O)O)CCN(CC(=O)O)CCN(CC(=O)O)CC3)CC2)C(C)C)CSCc2cccc(c2)CSC[C@@H](C(N)=O)NC(=O)[C@H](CO)NC(=O)[C@H](Cc2c[nH]c3ccccc23)NC(=O)[C@H]([C@@H](C)O)NC1=O [3BP-4136] ({DOTA}-[X2]VYCE[dP]DYLTWSC-NH2; linker 4-13 via mXylylene)
3,10 to 79.4 nM,"CC(C)C[C@@H]1NC(=O)[C@H](Cc2c[nH]c3ccccc23)NC(=O)[C@H](CC(=O)O)NC(=O)[C@H]2CCCN2C(=O)[C@H](CCC(=O)O)NC(=O)[C@@H](NC(=O)[C@H](Cc2ccc(O)cc2)NC(=O)[C@@H](NC(=O)CN2CCC(NC(=O)CN3CCN(CC(=O)O)CCN(CC(=O)O)CCN(CC(=O)O)CC3)CC2)C(C)C)CSCc2cccc(n2)CSC[C@@H](C(N)=O)NC(=O)[C@H](CO)NC(=O)[C@H](Cc2c[nH]c3ccccc23)NC(=O)[C@H]([C@@H](C)O)NC1=O [3BP-4140] ({DOTA}-[X2]VYCE[dP]DWLTWSC-NH2; linker 4-13 via Pyridine(2,6-diCH2))"
4,100 to 794 nM,"CC(C)C[C@@H]1NC(=O)[C@H](Cc2c[nH]c3ccccc23)NC(=O)[C@H](CC(=O)O)NC(=O)[C@H]2CCCN2C(=O)[C@H](CCC(=O)O)NC(=O)[C@@H](NC(=O)[C@H](Cc2ccc(O)cc2)NC(=O)[C@@H](NC(=O)CN2CCC(NC(=O)CN3CCN(CC(=O)O)CCN(CC(=O)O)CCN(CC(=O)O)CC3)CC2)C(C)C)CSCc2cncc(c2)CSC[C@@H](C(N)=O)NC(=O)[C@H](CO)NC(=O)[C@H](Cc2c[nH]c3ccccc23)NC(=O)[C@H]([C@@H](C)O)NC1=O [3BP-4141] ({DOTA}-[X2]VYCE[dP]DWLTWSC-NH2; linker 4-13 via Pyridine(3,5-bisCH2))"
5,< 10 nM,CC(C)C[C@@H]1NC(=O)[C@H](Cc2c[nH]c3ccccc23)NC(=O)[C@H](CC(=O)O)NC(=O)[C@H]2CCCN2C(=O)[C@H](CCC(=O)O)NC(=O)[C@@H](NC(=O)[C@H](Cc2ccc(O)cc2)NC(=O)[C@@H](NC(=O)CN2CCC(NC(=O)CN3CCN(CC(=O)O)CCN(CC(=O)O)CCN(CC(=O)O)CC3)CC2)C(C)C)CSCc2cccc(c2)CSC[C@@H](C(N)=O)NC(=O)[C@H](CO)NC(=O)[C@H](Cc2c[nH]c3ncccc23)NC(=O)[C@H]([C@@H](C)O)NC1=O [3BP-4159] ({DOTA}-[X2]VYCE[dP]DWLT[Trp(7-aza)]SC-NH2; linker 4-13 via mXylylene)
6,10 to 79.4 nM,CC(C)C[C@@H]1NC(=O)[C@H](Cc2ccc(C(C)(C)C)cc2)NC(=O)[C@H](CC(=O)O)NC(=O)[C@H]2CCCN2C(=O)[C@H](CCC(=O)O)NC(=O)[C@@H](NC(=O)[C@H](Cc2ccc(O)cc2)NC(=O)[C@@H](NC(=O)CN2CCC(NC(=O)CN3CCN(CC(=O)O)CCN(CC(=O)O)CCN(CC(=O)O)CC3)CC2)C(C)C)CSCc2cccc(c2)CSC[C@@H](C(N)=O)NC(=O)[C@H](CO)NC(=O)[C@H](Cc2c[nH]c3ccccc23)NC(=O)[C@H]([C@@H](C)O)NC1=O [3BP-4160] ({DOTA}-[X2]VYCE[dP]D[Phe(4-tBu)]LTWSC-NH2; linker 4-13 via mXylylene)
